The values below come from ChEMBL document CHEMBL2157958, “4-Isoxazolyl-1,4-dihydropyridines exhibit binding at the multidrug-resistance transporter” (Bioorg Med Chem, 2012).

Series [1] addresses MDR1 (P-glycoprotein, ABCB1) (Homo sapiens, UniProt P08183). Put plainly: Inhibition of MDR1 in human Caco2 cells assessed as calcein accumulation after 30 mins by fluorescence assay. Also on record: concentration or dose not given beside the values. In kind it is cell-based. The conditions noted are these: Caco-2 cells.
The nature of series [2]: Binding affinity at VGCC by patch clamp method. (The patch-clamp technique gives a direct electrical read-out from membranes.)
A short description of series [3]: Binding affinity at VGCC.

MDR1 (P-glycoprotein, ABCB1), sequence (P08183 whole entry): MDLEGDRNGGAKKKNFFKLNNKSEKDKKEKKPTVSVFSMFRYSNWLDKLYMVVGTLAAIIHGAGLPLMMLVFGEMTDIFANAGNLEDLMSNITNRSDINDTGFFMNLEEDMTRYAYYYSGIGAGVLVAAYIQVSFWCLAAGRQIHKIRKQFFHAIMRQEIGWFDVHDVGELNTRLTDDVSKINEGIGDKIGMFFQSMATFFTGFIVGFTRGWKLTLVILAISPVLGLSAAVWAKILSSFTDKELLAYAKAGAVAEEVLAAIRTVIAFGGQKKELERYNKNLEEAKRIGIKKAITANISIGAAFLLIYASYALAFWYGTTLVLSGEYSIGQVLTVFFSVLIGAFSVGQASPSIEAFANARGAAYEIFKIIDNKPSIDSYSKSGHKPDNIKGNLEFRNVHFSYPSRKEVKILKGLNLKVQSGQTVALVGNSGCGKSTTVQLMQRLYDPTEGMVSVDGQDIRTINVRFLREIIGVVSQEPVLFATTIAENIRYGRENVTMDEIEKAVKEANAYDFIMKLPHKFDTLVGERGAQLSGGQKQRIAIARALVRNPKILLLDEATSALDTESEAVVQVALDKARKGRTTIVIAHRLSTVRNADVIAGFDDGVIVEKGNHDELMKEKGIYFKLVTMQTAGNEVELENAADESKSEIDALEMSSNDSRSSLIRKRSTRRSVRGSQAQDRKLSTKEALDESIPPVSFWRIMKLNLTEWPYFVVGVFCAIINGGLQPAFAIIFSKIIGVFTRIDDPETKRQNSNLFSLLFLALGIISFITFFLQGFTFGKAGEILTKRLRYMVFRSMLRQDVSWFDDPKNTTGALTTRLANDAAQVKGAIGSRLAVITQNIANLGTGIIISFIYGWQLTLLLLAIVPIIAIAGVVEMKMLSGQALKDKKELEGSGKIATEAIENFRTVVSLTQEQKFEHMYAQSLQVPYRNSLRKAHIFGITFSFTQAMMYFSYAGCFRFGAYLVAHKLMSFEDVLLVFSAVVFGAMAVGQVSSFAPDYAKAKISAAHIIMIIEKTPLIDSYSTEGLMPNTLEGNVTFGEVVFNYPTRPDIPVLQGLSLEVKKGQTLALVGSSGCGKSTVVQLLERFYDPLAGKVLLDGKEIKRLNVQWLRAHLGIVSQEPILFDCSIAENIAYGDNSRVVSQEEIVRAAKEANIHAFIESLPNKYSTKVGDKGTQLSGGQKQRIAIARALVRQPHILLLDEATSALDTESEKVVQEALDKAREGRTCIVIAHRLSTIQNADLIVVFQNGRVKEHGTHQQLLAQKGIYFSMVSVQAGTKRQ

In general, inhibition refers to the change of the read-out against control, counted positive when it falls. For `CCOC(=O)C1=C(C)N=C(C)/C(=C(/O)OCC)C1c1c(-c2ccccc2OC)noc1C` (stereo unspecified), the inhibition at 0.5 h in series [1] was 32.8%. In addition, the Activity in series [2] is 17.1 µM. The Ki is the dissociation constant of the complex between target and ligand, obtained from inhibition or displacement. Turning to `CCOC(=O)C1=C(C)N=C(C)/C(=C(/O)OCC)C1c1c(C)noc1CCc1ccc(-c2ccccc2)cc1` (stereo unspecified), affinity in series [3] was put at a Ki of 8.69 nM. Further, the inhibition at 0.5 h in series [1] is 18.6%. Consider `CCOC(=O)C1=C(C)N=C(C)/C(=C(/O)OCC)C1c1c(-c2cccc(Cl)c2)noc1C` (stereo unspecified), for which the inhibition at 0.5 h in series [1] was 26.8%. The Activity in series [2] is 1.98 µM. On to `CCOC(=O)C1=C(C)N=C(C)/C(=C(/O)OCC)C1c1c(-c2cc(Cl)ccc2OC)noc1C` (stereo unspecified), for which the inhibition at 0.5 h in series [1] was 15%. For the same compound, the Activity in series [2] was 6.86 µM. As to `CCOC(=O)C1=C(C)N=C(C)/C(=C(/O)OCC)C1c1c(-c2ccccc2Cl)noc1C` (stereo unspecified), in series [1], the inhibition at 0.5 h was 10.9%. Moreover, the Activity in series [2] turned out to be 9.68 µM.

As to `CCOC(=O)C1=C(C)N=C(C)/C(=C(/O)OCC)C1c1c(-c2ccccc2)noc1C(C)C` (stereo unspecified), the inhibition at 0.5 h in series [1] is 38.4%. On the same count and under the same terms, as for `CCOC(=O)C1=C(C)NC(C)=C(C(=O)OCC)C1c1c(C)noc1C(C)Cc1cccc2ccccc12` (stereo unspecified), the figure is 38.3%; as for `CCOC(=O)C1=C(C)N=C(C)/C(=C(/O)OCC)C1c1c(-c2ccc(Cl)cc2)noc1C` (stereo unspecified), 11.7%. `CCOC(=O)C1=C(C)N=C(C)/C(=C(/O)OCC)C1c1c(-c2ccccc2)noc1CCc1ccccc1` (stereo unspecified) yielded a Ki in series [3] of 55.3 nM. Further, the inhibition at 0.5 h in series [1] is 27.6%.

In series [3], `CCOC(=O)C1=C(C)N=C(C)/C(=C(/O)OCC)C1c1c(C)noc1CCc1cccc2ccccc12` (stereo unspecified) returned a Ki of 4.1 nM. Besides, in series [1], the inhibition at 0.5 h was 19%. This compound also yielded an Activity in series [2] of 0.47 µM. Compound `CCOC(=O)C1=C(C)N=C(C)/C(=C(/O)OCC)C1c1c(-c2ccccc2)noc1C` (stereo unspecified) gave a Ki in series [3] of 13.9 nM. Also, the inhibition at 0.5 h in series [1] was 48.9%. `CCOC(=O)C1=C(C)NC(C)=C(C(=O)OCC)C1c1c(C)noc1C(C)Cc1cccc(Br)c1` (racemic): the inhibition at 0.5 h in series [1] is 61.2%.
